Source: ChEMBL document CHEMBL5724914, “Linking interpersonal differences in gut microbiota composition and drug biotransformation activity” (2024)

Tests used:
[1] = (§1) The drug is tested on Z-008 corresponding to metagenome with ENA study accession number: PRJEB37062 and ENA sample accession number: ERS12561808 for biotransformation under anaerobic condition. The drug concentrations were measured over 9 timepoints collected between 0 and 24 hours of incubation by liquid-chromatography-coupled mass spectrometry (LC–MS); settings: 2 µM
[2] = (§2) The drug is tested on WLS-090 corresponding to human gut metagenome with ENA study accession number: PRJEB37062 and ENA sample accession number: ERS12561753 for biotransformation under anaerobic condition. The drug concentrations were measured over 9 timepoints collected between 0 and 24 hours of incubation by liquid-chromatography-coupled mass spectrometry (LC–MS); settings: 2 µM
[3] = human gut metagenome, 24 h, 2 µM
[4] = as §2, with “Z-009” for “WLS-090”, “pig” for “human”, “ERS12561809” for “ERS12561753”; settings: 2 µM
[5] = human gut metagenome, 24 h, 2 µM; remark: listed apart in the source
[6] = as §2, with “WLS-073” for “WLS-090”, “ERS12561749” for “ERS12561753”; settings: 2 µM
[7] = as §2, with “WLS-039” for “WLS-090”, “ERS12561746” for “ERS12561753”; settings: 2 µM
[8] = human gut metagenome, 24 h, 2 µM; remark: listed apart in the source
[9] = as §2, with “Z-002” for “WLS-090”, “rabbit” for “human”, “ERS12561802” for “ERS12561753”; settings: 2 µM
[10] = human gut metagenome, 24 h, 2 µM; remark: listed apart in the source
[11] = as §2, with “WLS-370” for “WLS-090”, “ERS12561793” for “ERS12561753”; settings: 2 µM
[12] = human gut metagenome, 24 h, 2 µM; remark: listed apart in the source
[13] = as §2, with “Z-006” for “WLS-090”, “mouse” for “human”, “ERS12561806” for “ERS12561753”; settings: 2 µM
[14] = as §1, with “Z-005” for “Z-008”, “ERS12561805” for “ERS12561808”; settings: 2 µM
[15] = as §2, with “WLS-027” for “WLS-090”, “ERS12561744” for “ERS12561753”; settings: 2 µM
[16] = human gut metagenome, 24 h, 2 µM; remark: listed apart in the source
[17] = human gut metagenome, 24 h, 2 µM; remark: listed apart in the source
[18] = human gut metagenome, 24 h, 2 µM; remark: listed apart in the source
[19] = as §2, with “WLS-007” for “WLS-090”, “ERS12561742” for “ERS12561753”; settings: 2 µM
[20] = as §2, with “WLS-052” for “WLS-090”, “ERS12561747” for “ERS12561753”; settings: 2 µM
Note: call rule not given here.

Row | Structure (SMILES) | Bacterial Biotransformation [1] | Bacterial Biotransformation [2] | Bacterial Biotransformation [3] | Bacterial Biotransformation [4] | Bacterial Biotransformation [5] | Bacterial Biotransformation [6] | Bacterial Biotransformation [7] | Bacterial Biotransformation [8] | Bacterial Biotransformation [9] | Bacterial Biotransformation [10] | Bacterial Biotransformation [11] | Bacterial Biotransformation [12] | Bacterial Biotransformation [13] | Bacterial Biotransformation [14] | Bacterial Biotransformation [15] | Bacterial Biotransformation [16] | Bacterial Biotransformation [17] | Bacterial Biotransformation [18] | Bacterial Biotransformation [19] | Bacterial Biotransformation [20]
1 | Clc1cccc(Cl)c1N=C1NCCN1 [CLONIDINE] | Compound NOT metabolized | Compound metabolized | Compound metabolized | Compound metabolized | Compound NOT metabolized | Compound NOT metabolized | Compound NOT metabolized | Compound NOT metabolized | Compound metabolized | Compound metabolized | Compound NOT metabolized | Compound metabolized | Compound NOT metabolized | Compound NOT metabolized | Compound NOT metabolized | Compound metabolized | Compound NOT metabolized | Compound NOT metabolized | Compound NOT metabolized | Compound NOT metabolized
2 | COC(=O)[C@H](c1ccccc1Cl)N1CCc2sccc2C1.O=S(=O)(O)O [CLOPIDOGREL BISULFATE] | Compound metabolized | Compound metabolized | Compound metabolized | Compound metabolized | Compound metabolized | Compound metabolized | Compound NOT metabolized | Compound NOT metabolized | Compound metabolized | Compound metabolized | Compound metabolized | Compound metabolized | Compound metabolized | Compound metabolized | Compound NOT metabolized | Compound metabolized | Compound metabolized | Compound metabolized | Compound metabolized | Compound metabolized
3 | O=P1(N(CCCl)CCCl)NCCCO1 (stereo not given) [CYCLOPHOSPHAMIDE ANHYDROUS] | Compound NOT metabolized | Compound metabolized | Compound metabolized | Compound metabolized | Compound NOT metabolized | Compound NOT metabolized | Compound NOT metabolized | Compound NOT metabolized | Compound NOT metabolized | Compound metabolized | Compound NOT metabolized | Compound metabolized | Compound NOT metabolized | Compound NOT metabolized | Compound NOT metabolized | Compound NOT metabolized | Compound NOT metabolized | Compound NOT metabolized | Compound NOT metabolized | Compound NOT metabolized
4 | Br.COc1ccc2c(c1)[C@]13CCCC[C@@H]1[C@H](C2)N(C)CC3.O [DEXTROMETHORPHAN HYDROBROMIDE] | Compound NOT metabolized | Compound metabolized | Compound metabolized | Compound metabolized | Compound NOT metabolized | Compound NOT metabolized | Compound NOT metabolized | Compound NOT metabolized | Compound metabolized | Compound metabolized | Compound metabolized | Compound metabolized | Compound NOT metabolized | Compound NOT metabolized | Compound metabolized | Compound metabolized | Compound NOT metabolized | Compound NOT metabolized | Compound NOT metabolized | Compound NOT metabolized
5 | CC(=O)Nc1ccc(OC(C)=O)cc1 [DIACETAMATE] | Compound metabolized | Compound metabolized | Compound metabolized | Compound metabolized | Compound metabolized | Compound metabolized | Compound metabolized | Compound metabolized | Compound metabolized | Compound metabolized | Compound metabolized | Compound metabolized | Compound metabolized | Compound metabolized | Compound metabolized | Compound metabolized | Compound metabolized | Compound metabolized | Compound metabolized | Compound metabolized
6 | CCN(CC)CCOC(=O)C1(C2CCCCC2)CCCCC1 [DICYCLOMINE] | Compound NOT metabolized | Compound metabolized | Compound metabolized | Compound metabolized | Compound NOT metabolized | Compound NOT metabolized | Compound NOT metabolized | Compound metabolized | Compound metabolized | Compound metabolized | Compound NOT metabolized | Compound metabolized | Compound NOT metabolized | Compound NOT metabolized | Compound metabolized | Compound NOT metabolized | Compound metabolized | Compound NOT metabolized | Compound metabolized | Compound NOT metabolized
7 | COc1ccc([C@@H]2Sc3ccccc3N(CCN(C)C)C(=O)[C@@H]2OC(C)=O)cc1 [DILTIAZEM] | Compound NOT metabolized | Compound metabolized | Compound metabolized | Compound metabolized | Compound NOT metabolized | Compound metabolized | Compound metabolized | Compound NOT metabolized | Compound metabolized | Compound metabolized | Compound metabolized | Compound metabolized | Compound NOT metabolized | Compound NOT metabolized | Compound metabolized | Compound metabolized | Compound NOT metabolized | Compound NOT metabolized | Compound NOT metabolized | Compound NOT metabolized
